These results are taken from patent US8629173B2, “Solid forms comprising (+)-2-[1-(3-ethoxy-4-methoxyphenyl)-2-methylsulfonylethyl]-4-acetylaminoisoindoline-1,3-dione, compositions thereof, and uses thereof” (Celgene Corporation, priority 2002, dated 2014).

In assay [1] the target is PDE5 from human platelets (Homo sapiens, UniProt O76074). The assay is described as follows: PDE5 enzyme assay. The class given is biochemical.
Assay [2] concerns the target PDE7 purified from Hut78 human T cells (Homo sapiens, UniProt Q13946). The assay is described as follows: PDE7 enzyme assay. The class given is biochemical. The following applies: 10 nM cAMP. How it is done:
PDE7 is a cAMP-selective PDE expressed mainly in T cells and in skeletal muscle. T cell-derived cytokines such as IL-2 and IFN-γ are potentially regulatable via PDE7 inhibition. […] Compounds were tested against the PDE7 preparation in the presence of 10 nM cAMP as described for PDE4 in Table 1.

Another assay has as its system PDE4 (from U937 cells). Put plainly: PDE4 (U937 cell-derived) enzyme assay. It counts as biochemical, human. As to conditions: 1 μM cAMP.
Another assay deals with LPS-induced serum TNF-α. The assay is described as follows: Mouse LPS-induced serum TNF-α inhibition. The class given is in vivo. As to conditions: po. The method, then: Compounds were tested in this animal model according to previously described methods (Corral et al., 1996, Mol. Med., 2:506-515). Mouse LPS-induced serum TNF-α inhibition (ED50, mg/kg, p.o.)=0.05 for Compound A.

Assay [3] relates to CD18 expression on neutrophils. The assay is described as follows: fMLF-induced CD18 expression on neutrophils. It counts as cell-based. As to conditions: Neutrophil; human neutrophils, 30 nM fMLF. The method, then: (§1) CD18/CD11b (Mac-1) expression on neutrophils was measured as previously described (Derian et al., 1995, J. Immunol., 154:308-3 17) with the following modifications. Neutrophils were isolated as described above, then resuspended in complete medium at 1×10^6 cells/ml, pretreated with compounds at 10, 1, 0.1, 0.01, and 0 μM in duplicate at a final DMSO concentration of 0.1% for 10 minutes at 37° C. 5% CO2. Cells were then stimulated with 30 nM fMLF for 30 minutes and then chilled to 4° C. Cells were treated with rabbit IgG (Jackson ImmunoResearch Labs, West Grove, Pa., USA) (10 μg/1×10^6 cells) to block Fc receptors, stained with CD18-FITC and CD11b-PE (Becton Dickinson), and analyzed by flow cytometry on a FACSCalibur. CD18/CD11b expression (mean fluorescence) in the absence of stimulation was subtracted from all samples to obtain inhibition curves and calculate IC50 values.

Another assay deals with human PDE2 (Homo sapiens, UniProt O00408). Put plainly: PDE2 enzyme assay. It counts as biochemical.
Assay [4] deals with neutrophil adhesion to HUVEC. The assay is described as follows: fMLF-induced adhesion to HUVEC. The class given is cell-based. The following applies: human neutrophils, 500 nM fMLF. The method, then:
Human umbilical vein endothelial cells (HUVEC) were used as a substrate for neutrophil adhesion as previously described (Derian et al., 1995, J. Immunol., 154:308-317) with the following modifications. HUVEC cells were obtained from Anthrogenesis (Cedar Knolls, N.J., USA), and neutrophils were not treated with cytochalasin B. Cells were treated with compounds at 10, 1, 0.1, 0.01, 0.001, and 0 μM in a final DMSO concentration of 0.1% in duplicate for 10 minutes, stimulated with 500 nM fMLF for 30 minutes, and washed twice with PBS before measuring fluorescence on an FLX800 plate reader (Bio-Tek Instruments, Winooski, Vt., USA).

Assay [5] deals with LPS-induced neutrophilia in the lungs of conscious ferrets. The assay is described as follows: LPS-induced lung neutrophilia ferret model. As to conditions: Mustela putorius, po, read-out: Inhibition of LPS-induced neutrophilia (ED50). It counts as in vivo.
The subject of assay [6] is CD11b expression on neutrophils. The assay is described as follows: fMLF-induced CD11b expression on neutrophils. It counts as cell-based. As to conditions: Neutrophil; human neutrophils, 30 nM fMLF. How it is done:
as §1

Chain of human PDE2 (O00408 whole entry): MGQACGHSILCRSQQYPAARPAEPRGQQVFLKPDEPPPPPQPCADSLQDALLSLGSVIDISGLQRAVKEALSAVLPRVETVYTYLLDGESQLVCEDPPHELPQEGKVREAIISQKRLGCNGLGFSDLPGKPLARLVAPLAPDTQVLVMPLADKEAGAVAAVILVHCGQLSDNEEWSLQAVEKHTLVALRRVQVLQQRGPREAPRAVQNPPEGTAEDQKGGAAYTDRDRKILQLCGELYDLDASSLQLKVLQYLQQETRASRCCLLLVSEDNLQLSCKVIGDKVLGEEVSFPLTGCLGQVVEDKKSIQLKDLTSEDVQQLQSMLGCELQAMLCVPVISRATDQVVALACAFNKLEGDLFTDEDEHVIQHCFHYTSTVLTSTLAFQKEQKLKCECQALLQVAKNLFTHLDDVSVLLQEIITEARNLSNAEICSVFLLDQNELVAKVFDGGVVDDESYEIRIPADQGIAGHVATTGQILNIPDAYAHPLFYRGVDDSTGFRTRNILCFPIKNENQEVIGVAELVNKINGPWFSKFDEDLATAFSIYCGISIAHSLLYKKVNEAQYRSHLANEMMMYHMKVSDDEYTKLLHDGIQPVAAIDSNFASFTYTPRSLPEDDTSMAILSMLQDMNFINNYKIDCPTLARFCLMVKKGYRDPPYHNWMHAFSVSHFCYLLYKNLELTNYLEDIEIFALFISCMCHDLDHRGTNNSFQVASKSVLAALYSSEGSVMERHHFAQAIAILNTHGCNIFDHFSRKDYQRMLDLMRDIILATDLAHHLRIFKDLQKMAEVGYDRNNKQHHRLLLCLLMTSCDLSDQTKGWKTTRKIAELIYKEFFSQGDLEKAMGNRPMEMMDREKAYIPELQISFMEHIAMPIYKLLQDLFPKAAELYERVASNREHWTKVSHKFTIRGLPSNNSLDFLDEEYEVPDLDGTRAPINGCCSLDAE
Chain of PDE7 purified from Hut78 human T cells (Q13946 whole entry): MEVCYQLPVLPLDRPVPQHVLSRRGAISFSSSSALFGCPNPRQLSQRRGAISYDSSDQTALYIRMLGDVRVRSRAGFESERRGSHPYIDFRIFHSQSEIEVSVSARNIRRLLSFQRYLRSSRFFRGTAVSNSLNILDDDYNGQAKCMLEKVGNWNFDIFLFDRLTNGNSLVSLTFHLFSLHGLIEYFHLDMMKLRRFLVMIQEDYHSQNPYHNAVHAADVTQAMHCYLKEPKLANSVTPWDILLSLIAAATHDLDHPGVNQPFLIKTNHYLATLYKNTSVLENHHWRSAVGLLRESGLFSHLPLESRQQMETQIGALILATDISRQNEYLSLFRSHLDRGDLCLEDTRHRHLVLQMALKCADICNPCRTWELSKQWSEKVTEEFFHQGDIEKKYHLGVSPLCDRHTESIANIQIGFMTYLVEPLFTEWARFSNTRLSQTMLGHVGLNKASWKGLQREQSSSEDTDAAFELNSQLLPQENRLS

As usually defined, the IC50 is the concentration needed to halve the response being measured. Broadly, the ED50 is the midpoint of the dose-response relation. Regarding `CCOc1cc(C(CS(C)(=O)=O)N2C(=O)c3cccc(NC(C)=O)c3C2=O)ccc1OC` (single isomer, unassigned; (+)) [Compound A, (+)-2-[1-(3-ethoxy-4-methoxyphenyl)-2-methylsulfonylethyl]-4-acetylaminoisoindoline-1,3-dione], the “PDE Specificity Ratio PDE4/PDE5” value in assay [1] (from Table 1 data) is greater than 30000 fold. Further, the inhibition at 10 µM in assay [1] (read-out: PDE5 (% inhib at 10 μM)) stood at 3%; on human PDE2 (read-out: PDE2 (% inhib at 10 μM)), 6%. The IC50 in [2] stood at 20.5 µM; in the assay on PDE4 (from U937 cells), 0.0735 µM; in assay [3], 0.39 µM; in assay [4] it was 0.15 µM; in [6], 0.074 µM. Moreover, the ED50 with LPS-induced serum TNF-α was determined as 0.05 mg/kg; in assay [5] it was 0.8 mg/kg. For the same molecule, on human PDE2 (from Table 1 data), the “PDE Specificity Ratio PDE4/PDE2” value was greater than 10000 fold.
